In patent US6932968B1, “Erythropoietin (EPO) peptides and antibodies directed against these” (Dade Behring Marburg GmbH, priority 1989, dated 2005):

Assay: Immunization of rabbits with peptide-KLH conjugates, antibody detection by solid-phase ELISA / Western Blot
Format: in vivo
Conditions: high-titer epitope-specific anti-EPO antibodies
Source text: In order to produce antibodies specific for EPO peptides, the peptide-KLH conjugates were emulsified with adjuvants and injected into rabbits in accordance with a 5-week immunization regimen. After this time the animals had produced specific antibodies and were bled.
A solid-phase ELISA was used to assay the sera for peptide or EPO specificity. The content of peptide-specific and EPO-specific antibodies in the antisera or in the antibody fractions which had been purified by affinity chromatography was determined in plastic microtiter plates, which were coated with purified EPO or with EPO peptides, using an enzyme-coupled anti-rabbit-Ig antiserum. In parallel with this, the antibodies were examined in a Western Blot to detect the specific EPO bands of 34–38 kDa.
Rabbits were immunized with […] of antigen per animal on each occasion for a period of 5 weeks. At the first immunization, the animals each received 0.4 mg of antigen in complete Freund's adjuvant (CFA) subcutaneously at 8 immunization sites in the vicinity of the lymph nodes. This was followed 2 weeks later by subcutaneous immunization with 0.8 mg of antigen/animal in CFA. After a further 2 weeks, the animals received intravenous administration of 0.1 mg of antigen in Aerosil on each of 5 consecutive days. 3 days later they were bled, and the individual antisera were obtained.
20 μg/ml EPO or EPO-specific peptides were coupled in carbonate buffer in plastic microtiter plates at 4° C. overnight. Before carrying out the assays, the plates were washed twice with PBS, saturated with PBS/0.5% BSA for 30 minutes and then washed three times with PBS.
The plates saturated with BSA were incubated with dilutions of the anti-EPO rabbit antisera or of the purified antibody fractions for 2 hours. After this time they were washed with PBS and incubated with anti-rabbit Ig anti-serum, which was coupled to alkaline phosphatase, for 2 hours. […] The reaction was stopped with 1 M NaOH after one hour, and the optical density at […] was measured. […]

Question: Which “Immunogenicity of the EPO peptide” value does the source give for “SSQPWEPLQLHV [P1/1, EPO peptide, amino-acid positions 84 to 95]” here?
Answer: highly immunogenic

Question: For “CDSRVLERYLLEAKEAE [P4/1, EPO peptide, amino-acid positions 7 to 23]”, which “Immunogenicity of the EPO peptide” value is on record?
Answer: highly immunogenic

Question: With “KRMEVGQQAVEV [P3/1, EPO peptide, amino-acid positions 52 to 63]” as the sequence, how does the “Immunogenicity of the EPO peptide” value read?
Answer: highly immunogenic
